Structures can show the parent of a compound that is named as a salt. Where two headings read alike, the source gives them in different places.
Target: full-length human ATR protein (Homo sapiens (Human), UniProt Q13535)
Test: Binding assay ATR (TR-FRET tracer displacement)
Conditions: TR-FRET
Summary of the method: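 Full-length human GST-ATR co-purified with ATRIP, pre-complexed 30 min at 22 °C with anti-GST-Tb antibody, then pre-bound with compound 10 min. Tracer A or B added (2 µl of 100 nM solution), 30 min at 22 °C.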

[1] = tracer A, read-out: ATR binding (tracer A) IC50
[2] = tracer B, read-out: ATR binding (tracer B) IC50

Chain of full-length human ATR protein (Q13535 other isoform, or with tags, fused parts or gaps): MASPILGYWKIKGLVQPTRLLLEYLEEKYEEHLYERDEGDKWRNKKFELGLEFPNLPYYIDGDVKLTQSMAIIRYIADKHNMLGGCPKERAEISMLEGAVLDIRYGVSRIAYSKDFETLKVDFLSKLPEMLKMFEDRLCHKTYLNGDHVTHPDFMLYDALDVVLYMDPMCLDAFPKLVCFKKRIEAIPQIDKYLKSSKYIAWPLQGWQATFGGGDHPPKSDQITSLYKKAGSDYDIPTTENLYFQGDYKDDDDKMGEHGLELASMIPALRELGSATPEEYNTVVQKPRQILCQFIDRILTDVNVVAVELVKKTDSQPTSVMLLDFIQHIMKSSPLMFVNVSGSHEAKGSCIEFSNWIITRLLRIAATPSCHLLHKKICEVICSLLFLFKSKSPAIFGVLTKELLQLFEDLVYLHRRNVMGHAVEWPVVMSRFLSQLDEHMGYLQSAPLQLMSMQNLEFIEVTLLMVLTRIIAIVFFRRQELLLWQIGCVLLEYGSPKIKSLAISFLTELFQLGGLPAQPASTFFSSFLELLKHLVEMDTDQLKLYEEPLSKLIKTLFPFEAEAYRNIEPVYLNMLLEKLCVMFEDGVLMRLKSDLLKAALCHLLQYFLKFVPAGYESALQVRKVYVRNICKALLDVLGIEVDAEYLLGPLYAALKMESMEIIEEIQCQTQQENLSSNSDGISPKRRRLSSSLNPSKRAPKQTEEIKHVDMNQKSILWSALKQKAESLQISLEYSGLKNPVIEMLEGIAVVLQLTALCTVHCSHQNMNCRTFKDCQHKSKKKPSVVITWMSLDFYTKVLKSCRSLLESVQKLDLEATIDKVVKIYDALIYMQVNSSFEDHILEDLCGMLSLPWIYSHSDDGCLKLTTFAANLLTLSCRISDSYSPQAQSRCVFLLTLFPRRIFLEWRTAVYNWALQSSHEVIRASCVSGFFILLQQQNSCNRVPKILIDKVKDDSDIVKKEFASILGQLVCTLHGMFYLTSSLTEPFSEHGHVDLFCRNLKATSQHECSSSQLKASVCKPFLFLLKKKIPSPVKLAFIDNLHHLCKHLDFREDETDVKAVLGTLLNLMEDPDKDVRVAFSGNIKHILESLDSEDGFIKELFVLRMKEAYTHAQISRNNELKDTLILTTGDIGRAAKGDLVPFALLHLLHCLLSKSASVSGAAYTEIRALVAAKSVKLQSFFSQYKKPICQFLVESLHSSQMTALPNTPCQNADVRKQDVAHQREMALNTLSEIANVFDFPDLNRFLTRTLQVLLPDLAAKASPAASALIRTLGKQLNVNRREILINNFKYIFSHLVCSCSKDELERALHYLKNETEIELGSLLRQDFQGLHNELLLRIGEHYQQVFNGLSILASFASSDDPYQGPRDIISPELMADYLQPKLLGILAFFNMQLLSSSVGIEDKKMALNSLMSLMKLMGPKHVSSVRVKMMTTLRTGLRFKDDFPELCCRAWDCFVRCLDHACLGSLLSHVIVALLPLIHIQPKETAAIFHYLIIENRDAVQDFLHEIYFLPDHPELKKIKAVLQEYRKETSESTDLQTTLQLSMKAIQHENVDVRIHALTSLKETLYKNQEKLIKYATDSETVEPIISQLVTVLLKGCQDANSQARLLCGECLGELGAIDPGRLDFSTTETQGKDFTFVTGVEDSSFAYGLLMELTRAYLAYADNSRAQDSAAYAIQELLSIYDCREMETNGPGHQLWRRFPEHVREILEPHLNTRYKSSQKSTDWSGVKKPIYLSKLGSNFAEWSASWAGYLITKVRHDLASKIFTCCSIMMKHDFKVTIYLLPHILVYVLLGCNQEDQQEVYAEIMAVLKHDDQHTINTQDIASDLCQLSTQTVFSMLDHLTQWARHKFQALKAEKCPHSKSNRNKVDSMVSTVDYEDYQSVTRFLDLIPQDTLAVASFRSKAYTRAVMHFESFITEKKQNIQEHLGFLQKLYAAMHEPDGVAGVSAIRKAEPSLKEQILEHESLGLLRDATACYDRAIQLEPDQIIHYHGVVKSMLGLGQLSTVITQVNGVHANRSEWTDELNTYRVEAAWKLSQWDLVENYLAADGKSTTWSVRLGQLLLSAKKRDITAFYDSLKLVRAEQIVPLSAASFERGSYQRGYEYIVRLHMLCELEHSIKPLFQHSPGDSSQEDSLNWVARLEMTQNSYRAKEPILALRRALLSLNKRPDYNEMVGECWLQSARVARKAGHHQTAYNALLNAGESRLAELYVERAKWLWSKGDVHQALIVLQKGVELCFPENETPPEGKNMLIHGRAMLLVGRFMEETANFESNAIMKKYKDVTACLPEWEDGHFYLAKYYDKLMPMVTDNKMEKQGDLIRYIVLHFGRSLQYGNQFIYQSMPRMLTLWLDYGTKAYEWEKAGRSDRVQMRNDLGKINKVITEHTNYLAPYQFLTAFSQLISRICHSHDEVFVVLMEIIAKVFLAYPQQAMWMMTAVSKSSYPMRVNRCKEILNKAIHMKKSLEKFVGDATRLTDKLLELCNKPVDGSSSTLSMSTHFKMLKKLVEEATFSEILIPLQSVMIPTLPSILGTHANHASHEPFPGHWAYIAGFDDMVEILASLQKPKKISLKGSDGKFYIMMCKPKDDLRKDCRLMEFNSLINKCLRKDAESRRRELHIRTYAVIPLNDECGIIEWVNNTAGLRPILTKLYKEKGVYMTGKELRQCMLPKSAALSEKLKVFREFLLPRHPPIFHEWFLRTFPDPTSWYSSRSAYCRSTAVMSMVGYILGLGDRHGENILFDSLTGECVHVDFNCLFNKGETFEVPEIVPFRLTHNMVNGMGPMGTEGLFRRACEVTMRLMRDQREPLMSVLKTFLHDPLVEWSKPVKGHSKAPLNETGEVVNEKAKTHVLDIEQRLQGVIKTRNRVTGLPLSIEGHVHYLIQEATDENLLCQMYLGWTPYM
Chain of full-length human ATR protein (Q8WXE1 other isoform, or with tags, fused parts or gaps partner): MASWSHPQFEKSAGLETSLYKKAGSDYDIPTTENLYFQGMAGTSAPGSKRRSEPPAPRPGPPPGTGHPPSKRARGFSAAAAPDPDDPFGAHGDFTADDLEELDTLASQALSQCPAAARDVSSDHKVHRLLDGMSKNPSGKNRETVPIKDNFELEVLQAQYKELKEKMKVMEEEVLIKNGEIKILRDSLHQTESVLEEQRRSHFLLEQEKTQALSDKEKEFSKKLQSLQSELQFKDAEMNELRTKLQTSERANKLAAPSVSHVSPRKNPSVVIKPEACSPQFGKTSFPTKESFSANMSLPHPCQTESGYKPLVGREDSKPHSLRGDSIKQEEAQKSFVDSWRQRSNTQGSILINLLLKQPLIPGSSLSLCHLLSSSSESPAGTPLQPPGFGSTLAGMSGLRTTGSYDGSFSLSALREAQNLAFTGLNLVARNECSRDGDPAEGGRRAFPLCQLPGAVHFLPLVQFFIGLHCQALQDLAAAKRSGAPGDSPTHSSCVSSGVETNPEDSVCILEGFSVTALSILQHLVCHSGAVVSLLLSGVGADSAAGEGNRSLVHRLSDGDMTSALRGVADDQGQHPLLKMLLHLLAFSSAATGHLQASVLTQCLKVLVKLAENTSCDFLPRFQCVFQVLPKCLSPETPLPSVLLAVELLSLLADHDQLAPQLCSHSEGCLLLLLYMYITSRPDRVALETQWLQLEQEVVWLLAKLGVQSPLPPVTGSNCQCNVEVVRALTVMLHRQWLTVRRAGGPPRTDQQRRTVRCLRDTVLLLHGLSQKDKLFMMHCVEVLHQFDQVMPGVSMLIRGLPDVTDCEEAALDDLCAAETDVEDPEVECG

| Compound | IC50 [1] | IC50 [2] |
| --- | --- | --- |
| C[C@@H]1COCCN1c1cc(N=S(C)(=O)c2ccc(F)cc2)c2ccnc(-c3ccn[nH]3)c2n1 (stereo partly drawn) [Example 138, 4-{[(4-fluorophenyl)(methyl)oxido-λ^6-sulfanylidene]amino}-2-[(3R)-3-methylmorpholin-4-yl]-8-(1H-pyrazol-5-yl)-1,7-naphthyridine] | 29 nM | – |
| CS(=O)(=O)c1ccccc1-c1cc(N2CCOCC2)nc2c(-c3cc[nH]n3)nccc12 [Example 8, 4-(2-methanesulphonylphenyl)-2-(morpholin-4-yl)-8-(1H-pyrazol-3-yl)-[1,7]naphthyridine hydrochloride] | 118 nM | 69.2 nM |
| Cc1ccc(-c2cc(N3CCOC[C@H]3C)nc3c(-c4ccn[nH]4)nccc23)cn1 [Example 88, 2-[(3R)-3-methylmorpholin-4-yl]-4-(6-methylpyridin-3-yl)-8-(1H-pyrazol-5-yl)-1,7-naphthyridine] | 15.3 nM | – |
| CP(C)(=O)c1cc(N2CCOCC2)nc2c(-c3ccn[nH]3)nccc12 [Example 177, 4-(dimethylphosphoryl)-2-(morpholin-4-yl)-8-(1H-pyrazol-5-yl)-1,7-naphthyridine] | 250 nM | – |
| C[C@@H]1COCCN1c1cc(C(C)(C)O)c2ccnc(-c3ccn[nH]3)c2n1 [Example 128, 2-{2-[(3R)-3-methylmorpholin-4-yl]-8-(1H-pyrazol-5-yl)-1,7-naphthyridin-4-yl}propan-2-ol] | 32.6 nM | – |
| C[C@@H]1COCCN1c1cc(C2=CCNCC2)c2ccnc(-c3ccn[nH]3)c2n1 [Example 245, 2-[(3R)-3-methylmorpholin-4-yl]-8-(1H-pyrazol-5-yl)-4-(1,2,3,6-tetrahydropyridin-4-yl)-1,7-naphthyridine] | 32 nM | – |
| c1cc2c(C3CC3)cc(N3CCOCC3)nc2c(-c2cc[nH]n2)n1 [Example 18, 4-cyclopropyl-2-(morpholin-4-yl)-8-(1H-pyrazol-3-yl)-[1,7]naphthyridine] | 228 nM | 75.1 nM |
| c1cc(-c2nccc3c(-c4ccsc4)cc(N4CCOCC4)nc23)[nH]n1 [Example 372, 2-(morpholin-4-yl)-8-(1H-pyrazol-5-yl)-4-(thiophen-3-yl)-1,7-naphthyridine] | 134 nM | – |
| Cc1cc(-c2cc(N3CCOCC3)nc3c(-c4ccn[nH]4)nccc23)cc(C)c1O [Example 311, 2,6-dimethyl-4-[2-(morpholin-4-yl)-8-(1H-pyrazol-5-yl)-1,7-naphthyridin-4-yl]phenol] | 376 nM | – |
| C[C@@H]1COCCN1c1cc(-c2cccnc2F)c2ccnc(-c3ccn[nH]3)c2n1 [Example 89, 4-(2-fluoropyridin-3-yl)-2-[(3R)-3-methylmorpholin-4-yl]-8-(1H-pyrazol-5-yl)-1,7-naphthyridine] | 8.11 nM | – |
| CC(C)n1ccc(-c2cc(N3CCOC[C@H]3C)nc3c(-c4ccn[nH]4)nccc23)n1 [Example 263, 2-[(3R)-3-methylmorpholin-4-yl]-4-[1-(propan-2-yl)-1H-pyrazol-3-yl]-8-(1H-pyrazol-5-yl)-1,7-naphthyridine] | 19.3 nM | – |
| Oc1ccc(-c2cc(N3CCOCC3)nc3c(-c4ccn[nH]4)nccc23)cc1 [Example 326, 4-[2-(morpholin-4-yl)-8-(1H-pyrazol-5-yl)-1,7-naphthyridin-4-yl]phenol] | 73.2 nM | – |
| FC(F)(F)c1ccccc1-c1cc(N2CCOCC2)nc2c(-c3ccn[nH]3)nccc12 [Example 301, 2-(morpholin-4-yl)-8-(1H-pyrazol-5-yl)-4-[2-(trifluoromethyl)phenyl]-1,7-naphthyridine] | 21.6 nM | – |
| c1cc(-c2nccc3c(-c4cnc(NC5CC5)nc4)cc(N4CCOCC4)nc23)[nH]n1 [Example 396, N-cyclopropyl-5-[2-(morpholin-4-yl)-8-(1H-pyrazol-5-yl)-1,7-naphthyridin-4-yl]pyrimidin-2-amine] | 174 nM | – |
| CN(c1ccccc1)c1cc(N2CCOCC2)nc2c(-c3ccn[nH]3)nccc12 [Example 410, N-methyl-2-(morpholin-4-yl)-N-phenyl-8-(1H-pyrazol-5-yl)-1,7-naphthyridin-4-amine] | 153 nM | – |
| COc1cc(OC)cc(-c2cc(N3CCOCC3)nc3c(-c4ccn[nH]4)nccc23)c1 [Example 307, 4-(3,5-dimethoxyphenyl)-2-(morpholin-4-yl)-8-(1H-pyrazol-5-yl)-1,7-naphthyridine] | 189 nM | – |
| Cc1cc(N2CCOCC2)nc2c(-c3cc[nH]n3)nccc12 [Example 20, 4-methyl-2-(morpholin-4-yl)-8-(1H-pyrazol-3-yl)-[1,7]naphthyridine hydrochloride] | 816 nM | 320 nM |
| C[C@@H]1COCCN1c1cc(N=S(C)(=O)c2ccc(Br)cc2)c2ccnc(-c3ccn[nH]3)c2n1 (stereo partly shown) [Example 277] | 78.2 nM | – |
| CCCn1nccc1-c1cc(N2CCOC[C@H]2C)nc2c(-c3ccn[nH]3)nccc12 [Example 117, 2-[(3R)-3-methylmorpholin-4-yl]-4-(1-propyl-1H-pyrazol-5-yl)-8-(1H-pyrazol-5-yl)-1,7-naphthyridine] | 8.16 nM | – |

| Compound | IC50 [1] | IC50 [2] |
| --- | --- | --- |
| CC(C)Oc1cc(N2[C@H](C)COC[C@H]2C)nc2c(-c3ccn[nH]3)nccc12 [Example 59, 2-[(3R,5R)-3,5-dimethylmorpholin-4-yl]-4-isopropoxy-8-(1H-pyrazol-5-yl)-1,7-naphthyridine] | 730 nM | 1250 nM |
| c1cc(-c2nccc3c(N4CCCCC4)cc(N4CCOCC4)nc23)[nH]n1 [Example 408, 2-(morpholin-4-yl)-4-(piperidin-1-yl)-8-(1H-pyrazol-5-yl)-1,7-naphthyridine] | 65.1 nM | – |
| C[C@@H]1COCCN1c1cc(-c2ccc(N3CCCC3)cc2F)c2ccnc(-c3ccn[nH]3)c2n1 [Example 134, 4-[2-fluoro-4-(pyrrolidin-1-yl)phenyl]-2-[(3R)-3-methylmorpholin-4-yl]-8-(1H-pyrazol-5-yl)-1,7-naphthyridine] | 34.3 nM | – |
| CC(C)Oc1cc(N2CCOC[C@@H]2C)nc2c(-c3cc[nH]n3)nccc12 [Example 67, 4-isopropoxy-2-((S)-3-methylmorpholin-4-yl)-8-(1H-pyrazol-3-yl)-[1,7]naphthyridine] | 1000 nM | 1270 nM |
| C=C(C)c1cc(N2CCOCC2)nc2c(-c3cc[nH]n3)nccc12 [Example 10, 4-isopropenyl-2-(morpholin-4-yl)-8-(1H-pyrazol-3-yl)-[1,7]naphthyridine] | 126 nM | 43.9 nM |
| CCP(=O)(CC)c1cc(N2CCOC[C@H]2C)nc2c(-c3ccn[nH]3)nccc12 [Example 143, 4-(diethylphosphoryl)-2-[(3R)-3-methylmorpholin-4-yl]-8-(1H-pyrazol-5-yl)-1,7-naphthyridine] | 27.7 nM | – |
| CC(C)Cn1cc(-c2cc(N3CCOC[C@H]3C)nc3c(-c4ccn[nH]4)nccc23)cn1 [Example 268, 2-[(3R)-3-methylmorpholin-4-yl]-4-[1-(2-methylpropyl)-1H-pyrazol-4-yl]-8-(1H-pyrazol-5-yl)-1,7-naphthyridine] | 19.3 nM | – |
| CSc1ccc(-c2cc(N3CCOC[C@H]3C)nc3c(-c4ccn[nH]4)nccc23)c(C)n1 [Example 115, 4-[2-methyl-6-(methylsulfanyl)pyridin-3-yl]-2-[(3R)-3-methylmorpholin-4-yl]-8-(1H-pyrazol-5-yl)-1,7-naphthyridine] | 7.44 nM | – |
| c1cc(-c2nccc3c(N4CCCCCC4)cc(N4CCOCC4)nc23)[nH]n1 [Example 413, 4-(azepan-1-yl)-2-(morpholin-4-yl)-8-(1H-pyrazol-5-yl)-1,7-naphthyridine] | 279 nM | – |
| c1ccc2ncc(-c3cc(N4CCOCC4)nc4c(-c5ccn[nH]5)nccc34)cc2c1 [Example 354, 2-(morpholin-4-yl)-8-(1H-pyrazol-5-yl)-4-(quinolin-3-yl)-1,7-naphthyridine] | 84.7 nM | – |
| C[C@@H]1CN[C@@H](C)CN1c1cc(N2CCOCC2)nc2c(-c3ccn[nH]3)nccc12 (relative stereo) [Example 178, 4-[(trans)-2,5-dimethylpiperazin-1-yl]-2-(morpholin-4-yl)-8-(1H-pyrazol-5-yl)-1,7-naphthyridine] | 377 nM | – |
| CS(C)(=O)=Nc1cc(N2CCOCC2)nc2c(-c3ccn[nH]3)nccc12 [Example 65, 4-{[dimethyl(oxido)-λ^6-sulfanylidene]amino}-2-(morpholin-4-yl)-8-(1H-pyrazol-5-yl)-1,7-naphthyridine] | 335 nM | 276 nM |
| COc1ccc(-c2cc(N3CCOCC3)nc3c(-c4ccn[nH]4)nccc23)c(OC)c1 [Example 332, 4-(2,4-dimethoxyphenyl)-2-(morpholin-4-yl)-8-(1H-pyrazol-5-yl)-1,7-naphthyridine] | 68.1 nM | – |
| Cc1nn(C)cc1-c1cc(N2CCOC[C@H]2C)nc2c(-c3ccn[nH]3)nccc12 [Example 249, 4-(1,3-dimethyl-1H-pyrazol-4-yl)-2-[(3R)-3-methylmorpholin-4-yl]-8-(1H-pyrazol-5-yl)-1,7-naphthyridine] | 13.7 nM | – |
| Cc1noc(C)c1-c1cc(N2CCOCC2)nc2c(-c3ccn[nH]3)nccc12 [Example 379, 4-(3,5-dimethyl-1,2-oxazol-4-yl)-2-(morpholin-4-yl)-8-(1H-pyrazol-5-yl)-1,7-naphthyridine] | 69.8 nM | – |
| C[C@@H]1COCCN1c1cc(-c2ccn[nH]2)c2ccnc(-c3ccn[nH]3)c2n1 [Example 205, 2-[(3R)-3-methylmorpholin-4-yl]-4,8-di(1H-pyrazol-5-yl)-1,7-naphthyridine] | 49.3 nM | – |
| CS(=O)(=O)c1ccc(-c2cc(N3CCOCC3)nc3c(-c4cc[nH]n4)nccc23)cc1 [Example 7, 4-(4-methanesulphonylphenyl)-2-(morpholin-4-yl)-8-(1H-pyrazol-3-yl)-[1,7]naphthyridine] | 58.7 nM | 26.5 nM |
| O=C(NC1CC1)c1ccc(-c2cc(N3CCOCC3)nc3c(-c4ccn[nH]4)nccc23)cc1 [Example 291, N-cyclopropyl-4-[2-(morpholin-4-yl)-8-(1H-pyrazol-5-yl)-1,7-naphthyridin-4-yl]benzamide] | 83.7 nM | – |
| NC(=O)c1ccc(-c2cc(N3CCOCC3)nc3c(-c4ccn[nH]4)nccc23)cc1 [Example 296, 4-[2-(morpholin-4-yl)-8-(1H-pyrazol-5-yl)-1,7-naphthyridin-4-yl]benzamide] | 76.8 nM | – |
